Molecules are shown by their SMILES. *1 amine or outer side, *2 acyl side, *3 side chain or, on linkers, in order; H or OH if unused. Where a SMILES comes first, the peptide text is derived from it. Bridges are numbered along the chain shown (N, C = ends). [ ]: non-standard residue; d: D form. Trp(5-Cl) = N[C@@H](Cc1c[nH]c2ccc(Cl)cc12)C(=O)O; Pyridine(2,6-diCH2) = c1cc(C[*:1])nc(C[*:2])c1; Pro(4R-NH2) = N[C@H]1CN[C@H](C(=O)O)C1; mXylylene = c1cc(C[*:1])cc(C[*:2])c1; X7 = c1cc(CSCCN[*:2])cc(C[*:1])c1; Hyp = O=C(O)[C@@H]1C[C@@H](O)CN1; Tle = CC(C)(C)[C@H](N)C(=O)O; Thp = NC1(C(=O)O)CCOCC1

The first test deals with T1, GIPR (CHO-K1-hGIPR cells) (Homo sapiens, UniProt P48546).
T1 construct: host or cells: CHO-K1
T1 sequence (P48546 22-466): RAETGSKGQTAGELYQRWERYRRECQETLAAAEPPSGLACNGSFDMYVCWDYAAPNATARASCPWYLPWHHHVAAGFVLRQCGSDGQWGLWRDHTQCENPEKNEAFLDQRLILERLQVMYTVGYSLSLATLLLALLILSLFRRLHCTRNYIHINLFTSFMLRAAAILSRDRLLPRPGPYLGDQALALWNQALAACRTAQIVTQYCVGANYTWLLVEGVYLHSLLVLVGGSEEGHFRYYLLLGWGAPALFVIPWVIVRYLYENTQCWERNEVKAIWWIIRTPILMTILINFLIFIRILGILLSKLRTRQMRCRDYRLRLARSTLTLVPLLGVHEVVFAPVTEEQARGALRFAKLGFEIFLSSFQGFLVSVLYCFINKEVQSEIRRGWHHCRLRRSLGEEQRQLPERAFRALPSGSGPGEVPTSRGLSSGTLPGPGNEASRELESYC
Nature of the test: FACS binding assay. The note with it: competition with 20 nM GIP-057, 4° C. for 1 hour, read-out: pIC50 Category (converted). The essentials:
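CHO-K1 cells stably expressing human GIPR were detached with Accutase, suspended at 500.000 cells per mL in PBS with 1% FCS, and washed ice-cold. Bound peptide was detected with 1 μg/mL APC-streptavidin for 30 min on ice.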
Background: A flow cytometer gives signals particle by particle.
`CC[C@H](C)[C@@H]1NC(=O)[C@H](CC(C)C)NC(=O)[C@H](C)NC(=O)[C@@H](NC(=O)[C@H](CC(C)C)NC(=O)[C@H](CCC(=O)O)NC(=O)[C@@H]2CCCN2C(=O)[C@H](Cc2c[nH]c3ccccc23)NC(=O)[C@H](Cc2c[nH]c3ccccc23)NC(=O)[C@H](CC(=O)O)NC(=O)[C@H](C)NC(=O)[C@@H](N)CCSC)CSCc2cccc(c2)CSC[C@@H](C(N)=O)NC1=O` [GIP-249] (H-MADWWPELCALIC-NH2; linker 9-13 via mXylylene): the IC50 is 10 to 79.4 nM.

Consider `CC[C@H](C)[C@@H]1NC(=O)[C@H](CC(C)C)NC(=O)[C@@H](C)NC(=O)[C@@H](NC(=O)[C@H](CC(C)C)NC(=O)[C@H](CCC(=O)O)NC(=O)[C@@H]2CCCN2C(=O)[C@H](Cc2c[nH]c3ccccc23)NC(=O)[C@H](Cc2c[nH]c3ccccc23)NC(=O)[C@H](CC(=O)O)NC(C)=O)CSCc2cccc(c2)CSCCNC1=O` [GIP-250, Ac-Asp-Trp-Trp-Pro-Glu-Leu-[Cys(3MeBn)-ala-Leu-Ile-AET]] (Ac-DWWPELC[dA]LI; linker 7-C via X7), for which the IC50 is 10 to 79.4 nM.

The test is the same for the next values; noted with them: competition with 20 nM GIP-057, 4° C., 1 hour, read-out: pIC50 Category (converted).
Consider `CC[C@H](C)[C@@H]1NC(=O)[C@H]([C@@H](C)CC)NC(=O)C2(CCOCC2)NC(=O)[C@@H](NC(=O)[C@@H](CC(C)C)NC(=O)[C@H](CCC(=O)O)NC(=O)[C@@H]2C[C@@H](O)CN2C(=O)[C@H](Cc2c[nH]c3ccc(Cl)cc23)NC(=O)[C@H](Cc2c[nH]c3ccccc23)NC(=O)[C@H](CC(=O)O)NC(C)=O)CSCc2cccc(n2)CSC[C@@H](C(N)=O)NC1=O` [GIP-229, Ac-Asp-Trp-5Clw-Hyp-Glu-leu-[Cys(2Lut)-Thp-Ile-Ile-Cys]-NH2] (Ac-DW[Trp(5-Cl)][Hyp]E[dL]C[Thp]IIC-NH2; linker 7-11 via Pyridine(2,6-diCH2)), for which the IC50 is below 10 nM.

Take `CC[C@H](C)[C@@H]1NC(=O)[C@H](CCCNC(=N)N)NC(=O)C2(CCOCC2)NC(=O)[C@@H](NC(=O)[C@@H](CC(C)C)NC(=O)[C@H](CCC(=O)O)NC(=O)[C@@H]2C[C@@H](O)CN2C(=O)[C@H](Cc2c[nH]c3ccc(Cl)cc23)NC(=O)[C@H](Cc2c[nH]c3ccccc23)NC(=O)[C@H](CC(=O)O)NC(C)=O)CSCc2cccc(n2)CSC[C@@H](C(N)=O)NC1=O` [GIP-230, Ac-Asp-Trp-5Clw-Hyp-Glu-leu-[Cys(2Lut)-Thp-Arg-Ile-Cys]-NH2] (Ac-DW[Trp(5-Cl)][Hyp]E[dL]C[Thp]RIC-NH2; linker 7-11 via Pyridine(2,6-diCH2)): the IC50 is below 10 nM.

For `CC[C@H](C)[C@@H]1NC(=O)[C@H](CCC(=O)O)NC(=O)C2(CCOCC2)NC(=O)[C@@H](NC(=O)[C@@H](CC(C)C)NC(=O)[C@H](CCC(=O)O)NC(=O)[C@@H]2C[C@@H](O)CN2C(=O)[C@H](Cc2c[nH]c3ccc(Cl)cc23)NC(=O)[C@H](Cc2c[nH]c3ccccc23)NC(=O)[C@H](CC(=O)O)NC(C)=O)CSCc2cccc(n2)CSC[C@@H](C(N)=O)NC1=O` [GIP-231, Ac-Asp-Trp-5Clw-Hyp-Glu-leu-[Cys(2Lut)-Thp-Glu-Ile-Cys]-NH2] (Ac-DW[Trp(5-Cl)][Hyp]E[dL]C[Thp]EIC-NH2; linker 7-11 via Pyridine(2,6-diCH2)), the IC50 is below 10 nM.

As for `CC[C@H](C)[C@@H]1NC(=O)[C@H](Cc2ccccc2)NC(=O)C2(CCOCC2)NC(=O)[C@@H](NC(=O)[C@@H](CC(C)C)NC(=O)[C@H](CCC(=O)O)NC(=O)[C@@H]2C[C@@H](O)CN2C(=O)[C@H](Cc2c[nH]c3ccc(Cl)cc23)NC(=O)[C@H](Cc2c[nH]c3ccccc23)NC(=O)[C@H](CC(=O)O)NC(C)=O)CSCc2cccc(n2)CSC[C@@H](C(N)=O)NC1=O` [GIP-232, Ac-Asp-Trp-5Clw-Hyp-Glu-leu-[Cys(2Lut)-Thp-Phe-Ile-Cys]-NH2] (Ac-DW[Trp(5-Cl)][Hyp]E[dL]C[Thp]FIC-NH2; linker 7-11 via Pyridine(2,6-diCH2)), the IC50 is below 10 nM.

Consider `CC[C@H](C)[C@@H]1NC(=O)[C@H](Cc2c[nH]c3ccccc23)NC(=O)C2(CCOCC2)NC(=O)[C@@H](NC(=O)[C@@H](CC(C)C)NC(=O)[C@H](CCC(=O)O)NC(=O)[C@@H]2C[C@@H](O)CN2C(=O)[C@H](Cc2c[nH]c3ccc(Cl)cc23)NC(=O)[C@H](Cc2c[nH]c3ccccc23)NC(=O)[C@H](CC(=O)O)NC(C)=O)CSCc2cccc(n2)CSC[C@@H](C(N)=O)NC1=O` [GIP-233, Ac-Asp-Trp-5Clw-Hyp-Glu-leu-[Cys(2Lut)-Thp-Trp-Ile-Cys]-NH2] (Ac-DW[Trp(5-Cl)][Hyp]E[dL]C[Thp]WIC-NH2; linker 7-11 via Pyridine(2,6-diCH2)), for which the IC50 is below 10 nM.

Consider `CC[C@H](C)[C@@H]1NC(=O)[C@H](CC(C)C)NC(=O)[C@H](Cc2c[nH]c3ccccc23)NC(=O)[C@@H](NC(=O)[C@@H](CC(C)C)NC(=O)[C@H](CCC(=O)O)NC(=O)[C@@H]2C[C@@H](O)CN2C(=O)[C@H](Cc2c[nH]c3ccc(Cl)cc23)NC(=O)[C@H](Cc2c[nH]c3ccccc23)NC(=O)[C@H](CC(=O)O)NC(C)=O)CSCc2cccc(n2)CSC[C@@H](C(N)=O)NC1=O` [GIP-234, Ac-Asp-Trp-5Clw-Hyp-Glu-leu-[Cys(2Lut)-Trp-Leu-Ile-Cys]-NH2] (Ac-DW[Trp(5-Cl)][Hyp]E[dL]CWLIC-NH2; linker 7-11 via Pyridine(2,6-diCH2)), for which the IC50 is below 10 nM.

For `CC[C@H](C)[C@@H]1NC(=O)[C@H](CC(C)C)NC(=O)[C@H](CCC(=O)O)NC(=O)[C@@H](NC(=O)[C@@H](CC(C)C)NC(=O)[C@H](CCC(=O)O)NC(=O)[C@@H]2C[C@@H](O)CN2C(=O)[C@H](Cc2c[nH]c3ccc(Cl)cc23)NC(=O)[C@H](Cc2c[nH]c3ccccc23)NC(=O)[C@H](CC(=O)O)NC(C)=O)CSCc2cccc(n2)CSC[C@@H](C(N)=O)NC1=O` [GIP-235, Ac-Asp-Trp-5Clw-Hyp-Glu-leu-[Cys(2Lut)-Glu-Leu-Ile-Cys]-NH2] (Ac-DW[Trp(5-Cl)][Hyp]E[dL]CELIC-NH2; linker 7-11 via Pyridine(2,6-diCH2)), the IC50 was below 10 nM.

Regarding `CC[C@H](C)[C@@H]1NC(=O)[C@H](CO)NC(=O)C2(CCOCC2)NC(=O)[C@@H](NC(=O)[C@@H](CC(C)C)NC(=O)[C@H](CCC(=O)O)NC(=O)[C@@H]2C[C@@H](O)CN2C(=O)[C@H](Cc2c[nH]c3ccc(Cl)cc23)NC(=O)[C@H](Cc2c[nH]c3ccccc23)NC(=O)[C@H](CC(=O)O)NC(C)=O)CSCc2cccc(n2)CSC[C@@H](C(N)=O)NC1=O` [GIP-236, Ac-Asp-Trp-5Clw-Hyp-Glu-leu-[Cys(2Lut)-Thp-Ser-Ile-Cys]-NH2] (Ac-DW[Trp(5-Cl)][Hyp]E[dL]C[Thp]SIC-NH2; linker 7-11 via Pyridine(2,6-diCH2)), the IC50 is below 10 nM.

In the case of `CC(=O)N[C@@H](CC(=O)O)C(=O)N[C@@H](Cc1c[nH]c2ccccc12)C(=O)N[C@@H](Cc1c[nH]c2ccc(Cl)cc12)C(=O)N1C[C@H](O)C[C@H]1C(=O)N[C@@H](CCC(=O)O)C(=O)N[C@H](CC(C)C)C(=O)N[C@H]1CSCc2cccc(n2)CSC[C@@H](C(N)=O)NC(=O)[C@H](CC(C)C)NC(=O)[C@H](CC(C)C)NC(=O)C2(CCOCC2)NC1=O` [GIP-237, Ac-Asp-Trp-5Clw-Hyp-Glu-leu-[Cys(2Lut)-Thp-Leu-Leu-Cys]-NH2] (Ac-DW[Trp(5-Cl)][Hyp]E[dL]C[Thp]LLC-NH2; linker 7-11 via Pyridine(2,6-diCH2)), the IC50 was below 10 nM.

With `CC(=O)N[C@@H](CC(=O)O)C(=O)N[C@@H](Cc1c[nH]c2ccccc12)C(=O)N[C@@H](Cc1c[nH]c2ccc(Cl)cc12)C(=O)N1C[C@H](O)C[C@H]1C(=O)N[C@@H](CCC(=O)O)C(=O)N[C@H](CC(C)C)C(=O)N[C@H]1CSCc2cccc(n2)CSC[C@@H](C(N)=O)NC(=O)[C@H](C(C)(C)C)NC(=O)[C@H](CC(C)C)NC(=O)C2(CCOCC2)NC1=O` [GIP-238, Ac-Asp-Trp-5Clw-Hyp-Glu-leu-[Cys(2Lut)-Thp-Leu-Tle-Cys]-NH2] (Ac-DW[Trp(5-Cl)][Hyp]E[dL]C[Thp]L[Tle]C-NH2; linker 7-11 via Pyridine(2,6-diCH2)), the IC50 was below 10 nM.

Turning to `CC[C@H](C)[C@@H]1NC(=O)[C@H](CC(C)C)NC(=O)C2(CCOCC2)NC(=O)[C@@H](NC(=O)[C@@H](CC(C)C)NC(=O)[C@H](CCC(=O)O)NC(=O)[C@@H]2C[C@@H](N)CN2C(=O)[C@H](Cc2c[nH]c3ccc(Cl)cc23)NC(=O)[C@H](Cc2c[nH]c3ccccc23)NC(=O)[C@H](CC(=O)O)NC(C)=O)CSCc2cccc(n2)CSC[C@@H](C(N)=O)NC1=O` [GIP-239, Ac-Asp-Trp-5Clw-Tap-Glu-leu-[Cys(2Lut)-Thp-Leu-Ile-Cys]-NH2] (Ac-DW[Trp(5-Cl)][Pro(4R-NH2)]E[dL]C[Thp]LIC-NH2; linker 7-11 via Pyridine(2,6-diCH2)), the IC50 is below 10 nM.

Take `CC[C@H](C)[C@@H]1NC(=O)[C@H](CC(C)C)NC(=O)[C@H](CCCCN)NC(=O)[C@@H](NC(=O)[C@H](CC(C)C)NC(=O)[C@H](CCC(=O)O)NC(=O)[C@@H]2CCCN2C(=O)[C@H](Cc2c[nH]c3ccccc23)NC(=O)[C@H](Cc2c[nH]c3ccccc23)NC(=O)[C@H](CC(=O)O)NC(=O)[C@H](Cc2ccc(O)cc2)NC(=O)[C@@H](N)CCSC)CSCc2cccc(c2)CSC[C@@H](C(N)=O)NC1=O` [GIP-243] (H-MYDWWPELCKLIC-NH2; linker 9-13 via mXylylene): the IC50 was 10 to 79.4 nM.

(Values after patent US20250296971A1, “GASTRIC INHIBITORY PEPTIDE RECEPTOR LIGANDS” (priority 2021, published 2025).)
